Data as given in patent publication US20230059136A1, “THE COMPOUNDS AND COMPOSITIONS FOR TREATING CONDITIONS ASSOCIATED WITH NLRP ACTIVITY” (Novartis AG, priority 2018, published 2023).

tested on: IL-1β production in PMA-differentiated THP-1 cells; assay: IL-1β production in PMA-differentiated THP-1 cells stimulated with gramicidin (hTHP-1 assay containing 2% fetal bovine serum); assay type: cell-based, human; conditions: Homo sapiens, THP-1, Table B1; 2% fetal bovine serum; cells printed as numeric bound; read-out: hTHP-1 IC50 (Average IC50 of compounds in hTHP-1 assay)
Summary of the method: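 IL-1β release was read by HTRF on supernatants of 50,000 PMA-primed (20 ng/ml, 16-18 h) THP-1 cells/well in 2% FBS medium. Cells saw compound for 1 h (11-point titration from 100 μM, 0.37% DMSO) before a 2 h gramicidin (5 μM) challenge.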

| IC50 [µM] | Compound |
| --- | --- |
| > 30 | CC(C)c1cc(F)cc(C(C)C)c1C(C)C(=O)N=S(N)(=O)c1cnc(C(C)(C)O)s1 (stereo not shown) [Example 96, N-(amino(2-(2-hydroxypropan-2-yl)thiazol-5-yl)(oxo)-λ^6-sulfaneylidene)-2-(4-fluoro-2,6-diisopropylphenyl)propanamide] |
| > 30 | CC(C)(O)c1ncc(S(N)(=O)=NC(=O)Cc2c3c(cc4c2CC4)CCC3)s1 [Example 224, (S)- and (R)—N-(amino(2-(2-hydroxypropan-2-yl)thiazol-5-yl)(oxo)-λ^6-sulfaneylidene)-2-(2,4,5,6-tetrahydro-1H-cyclobuta[f]inden-3-yl)acetamide] |

same assay, conditions: Homo sapiens, THP-1, Table B1; 2% fetal bovine serum; class symbols; read-out: hTHP-1 IC50 (Average IC50 of compounds in hTHP-1 assay)

| IC50 [µM] | Compound |
| --- | --- |
| 0.04 to 0.2 | CC(C)c1cc(-c2ccc3c(c2)OC(F)(F)O3)cc(C(C)C)c1CC(=O)N=S(N)(=O)c1ncc(C(C)(C)O)s1 (stereo not shown) [Example 117, N-(amino(5-(2-hydroxypropan-2-yl)thiazol-2-yl)(oxo)-λ^6-sulfaneylidene)-2-(4-(2,2-difluorobenzo[d][1,3]dioxol-5-yl)-2,6-diisopropylphenyl) acetamide] |
| 0.2 to 1 | CC(C)c1ccc(C#N)c(C(C)C)c1CC(=O)N=S(N)(=O)c1nc(C(C)(C)O)cs1 (stereo not shown) [Example 120, N-(amino(4-(2-hydroxypropan-2-yl)thiazol-2-yl)(oxo)-λ^6-sulfaneylidene)-2-(3-cyano-2,6-diisopropylphenyl)acetamide] |
| 0.2 to 1 | Cc1ccc(-c2cc(C(C)C)c(CC(=O)N=S(N)(=O)c3ncc(C(C)(C)O)s3)c(C(C)C)c2)cc1C (stereo not shown) [Example 121, N-(amino(5-(2-hydroxypropan-2-yl)thiazol-2-yl)(oxo)-λ^6-sulfaneylidene)-2-(3,5-diisopropyl-3′,4′-dimethyl-[1,1′-biphenyl]-4-yl)acetamide] |
| 0.2 to 1 | CC(C)c1cc(-c2ccc(Cl)c(Cl)c2)cc(C(C)C)c1CC(=O)N=S(N)(=O)c1ncc(C(C)(C)O)s1 (stereo not shown) [Example 122, N-(amino(5-(2-hydroxypropan-2-yl)thiazol-2-yl)(oxo)-λ^6-sulfaneylidene)-2-(3′,4′-dichloro-3,5-diisopropyl-[1,1′-biphenyl]-4-yl)acetamide] |
| 0.2 to 1 | CC(C)c1ccc(F)c(C(C)C)c1CC(=O)N=S(N)(=O)c1ccc(C(C)(C)O)s1 (stereo not shown) [Example 125, N-(amino(5-(2-hydroxypropan-2-yl)thiophen-2-yl)(oxo)-λ^6-sulfaneylidene)-2-(3-fluoro-2,6-diisopropylphenyl)acetamide] |
| 1 to 5 | CC(C)c1cc2c(c(C(C)C)c1CC(=O)N=S(N)(=O)c1ccc(CN(C)C)cc1)COC2 (stereo not shown) [Example 134, N-(amino(4-((dimethylamino)methyl)phenyl)(oxo)-λ^6-sulfaneylidene)-2-(4,6-diisopropyl-1,3-dihydroisobenzofuran-5-yl) acetamide] |
| 0.2 to 1 | CC(C)c1cc(-c2ccc3c(c2)CCOC3)cc(C(C)C)c1CC(=O)N=S(N)(=O)c1sc(C(C)(C)O)nc1CO (stereo not shown) [Example 137, N-(amino(4-(hydroxymethyl)-2-(2-hydroxypropan-2-yl)thiazol-5-yl)(oxo)-λ^6-sulfaneylidene)-2-(4-(isochroman-6-yl)-2,6-diisopropylphenyl)acetamide] |
| 0.04 to 0.2 | CC(C)c1cc(COC2CCCC2)cc(C(C)C)c1CC(=O)N=S(N)(=O)c1cnc(C(C)(C)O)s1 (stereo not shown) [Example 141, N-(amino(2-(2-hydroxypropan-2-yl)thiazol-5-yl)(oxo)-λ^6-sulfaneylidene)-2-(4-((cyclopentyloxy)methyl)-2,6-diisopropylphenyl)acetamide] |
| 1 to 5 | CC(C)c1cc2c(c(C(C)C)c1CC(=O)N=S(N)(=O)c1cnc(C(C)(C)O)s1)CCC2 (stereo not shown) [Example 142, N-(amino(2-(2-hydroxypropan-2-yl)thiazol-5-yl)(oxo)-λ^6-sulfaneylidene)-2-(4,6-diisopropyl-2,3-dihydro-1H-inden-5-yl)acetamide] |
| 0.2 to 1 | CC(C)c1ncc(F)c(C(C)C)c1CC(=O)N=S(N)(=O)c1sc(C(C)(C)O)cc1F (stereo not shown) [Example 149, N-(amino(3-fluoro-5-(2-hydroxypropan-2-yl)thiophen-2-yl)(oxo)-λ^6-sulfaneylidene)-2-(5-fluoro-2,4-diisopropylpyridin-3-yl) acetamide] |
| 1 to 5 | CC(C)c1nc(C(F)(F)F)nc(C(C)C)c1CC(=O)N=S(N)(=O)c1cnc(C(C)(C)O)s1 (stereo not shown) [Example 153, N-(amino(2-(2-hydroxypropan-2-yl)thiazol-5-yl)(oxo)-λ^6-sulfaneylidene)-2-(4,6-diisopropyl-2-(trifluoromethyl)pyrimidin-5-yl)acetamide] |
| 5 to 30 | CC(C)c1cnc(F)c(C(C)C)c1CC(=O)N=S(N)(=O)c1cnc(C(C)(C)O)s1 (stereo not shown) [Example 154, N-(amino(2-(2-hydroxypropan-2-yl)thiazol-5-yl)(oxo)-λ^6-sulfaneylidene)-2-(2-fluoro-3,5-diisopropylpyridin-4-yl)acetamide] |
| 1 to 5 | CC(C)(O)c1ncc(S(N)(=O)=NC(=O)Cc2c3c(cc4c2CC4)CCC3)s1 (stereo not shown) [Example 222, N-(amino(2-(2-hydroxypropan-2-yl)thiazol-5-yl)(oxo)-λ^6-sulfaneylidene)-2-(2,4,5,6-tetrahydro-1H-cyclobuta[f]inden-3-yl)acetamide] |

More lines, now with the values behind:

| Compound | IC50 [µM] |
| --- | --- |
| CC(C)c1cc(C#N)cc(C(C)C)c1CC(=O)N=S(N)(=O)c1sc(C(C)(C)O)nc1CO (stereo not shown) [Example 22, N-(amino(4-(hydroxymethyl)-2-(2-hydroxypropan-2-yl)thiazol-5-yl)(oxo)-λ^6-sulfaneylidene)-2-(4-cyano-2,6-diisopropylphenyl)acetamide] | 0.2 to 1 |
| CC(C)c1cc(-c2ccc3c(c2)COCC3)cc(C(C)C)c1CC(=O)N=S(N)(=O)c1cnc(C(C)(C)O)s1 (stereo not shown) [Example 97, N-(amino(2-(2-hydroxypropan-2-yl)thiazol-5-yl)(oxo)-λ^6-sulfaneylidene)-2-(4-(isochroman-7-yl)-2,6-diisopropylphenyl)acetamide] | 0.2 to 1 |
| CC(C)(O)c1ncc(S(N)(=O)=NC(=O)Cc2c(C3CC3)cc(F)cc2C(F)(F)F)s1 (stereo not shown) [Example 98, N-(amino(2-(2-hydroxypropan-2-yl)thiazol-5-yl)(oxo)-λ^6-sulfaneylidene)-2-(2-cyclopropyl-4-fluoro-6-(trifluoromethyl)phenyl)acetamide] | 5 to 30 |
| CC(C)c1nc(-c2cccc(C(F)(F)F)c2)c(F)c(C(C)C)c1CC(=O)N=S(N)(=O)c1cnc(C(C)(C)O)s1 (stereo not shown) [Example 100, N-(amino(2-(2-hydroxypropan-2-yl)thiazol-5-yl)(oxo)-λ^6-sulfaneylidene)-2-(5-fluoro-2,4-diisopropyl-6-(3-(trifluoromethyl)phenyl)pyridin-3-yl)acetamide] | 0.2 to 1 |
| CC(C)c1ccc(F)c(C(C)C)c1CC(=O)N=S(N)(=O)c1cc(C(C)(C)O)cs1 (stereo not shown) [Example 106, N-(ainino(4-(2-hydroxypropan-2-yl)thiophen-2-yl)(oxo)-λ^6-sulfaneylidene)-2-(3-fluoro-2,6-diisopropylphenyl)acetamide] | 0.04 to 0.2 |
| COCc1cc(C(C)C)c(CC(=O)N=S(N)(=O)c2ncc(C(C)(C)O)s2)c(C(C)C)c1 (stereo not shown) [Example 111, N-(amino(5-(2-hydroxypropan-2-yl)thiazol-2-yl)(oxo)-λ^6-sulfaneylidene)-2-(2,6-diisopropyl-4-(methoxymethyl)phenyl) acetamide] | 0.04 to 0.2 |

same assay, conditions: Table B1; 2% fetal bovine serum; class symbols; read-out: hTHP-1 IC50 (Average IC50 of compounds in hTHP-1 assay)

| IC50 [µM] | Compound |
| --- | --- |
| 0.008 to 0.04 | CC(C)c1cc(F)cc(C(C)C)c1CC(=O)N=S(N)(=O)c1sc(C(C)(C)O)cc1F (stereo not shown) [Example 17, 2-(4-fluoro-2,6-diisopropylphenyl)-N-(3-fluoro-5-(2-hydroxypropan-2-yl)thiophen-2-ylsulfonimidoyl)acetamide] |
| 0.008 to 0.04 | CC(C)c1c(F)c(C#N)cc(C2CC2)c1CC(=O)N=S(N)(=O)c1sc(C(C)(C)O)cc1F (stereo not shown) [Example 19, 2-(4-cyano-6-cyclopropyl-3-fluoro-2-isopropylphenyl)-N-(3-fluoro-5-(2-hydroxypropan-2-yl)thiophen-2-ylsulfonimidoyl)acetamide] |
| 0.2 to 1 | CC(C)c1cc(Cl)c(F)c(C2CC2)c1CC(=O)N=S(N)(=O)c1sc(C(C)(C)O)cc1F (stereo not shown) [Example 20, 2-(4-chloro-2-cyclopropyl-3-fluoro-6-isopropylphenyl)-N-(3-fluoro-5-(2-hydroxypropan-2-yl)thiophen-2-ylsulfonimidoyl)acetamide] |
| 0.04 to 0.2 | CC(C)c1cc(OC(F)F)cc(C(C)C)c1CC(=O)N=S(N)(=O)c1sc(C(C)(C)O)cc1F (stereo not shown) [Example 21, 2-(4-(difluoromethoxy)-2,6-diisopropylphenyl)-N-(3-fluoro-5-(2-hydroxypropan-2-yl)thiophen-2-ylsulfonimidoyl)acctamide] |
| 0.2 to 1 | COCc1cc(C(C)C)c(CC(=O)N=S(N)(=O)c2sc(C(C)(C)O)nc2CO)c(C(C)C)c1 (stereo not shown) [Example 24, 2-(2,6-diisopropyl-4-(methoxymethyl)phenyl)-N-(4-(hydroxymethyl)-2-(2-hydroxypropan-2-yl)thiazole-5-sulfonimidoyl)acetamide] |
| 0.2 to 1 | CCc1cc(OC(F)F)cc(C(C)C)c1CC(=O)N=S(N)(=O)c1sc(C(C)(C)O)cc1F (stereo not shown) [Example 36, 2-(4-(difluoromethoxy)-2-ethyl-6-isopropylphenyl)-N-(3-fluoro-5-(2-hydroxypropan-2-yl)thiophene-2-sulfonimidoyl)acetamide] |
| 1 to 5 | CC(C)(O)c1ncc(S(N)(=O)=NC(=O)Cc2c3c(cc4c2CC4)CCC3)s1 [Example 223, (S)- and (R)—N-(amino(2-(2-hydroxypropan-2-yl)thiazol-5-yl)(oxo)-λ^6-sulfaneylidene)-2-(2,4,5,6-tetrahydro-1H-cyclobuta[f]inden-3-yl)acetamide] |
